#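 Results reflect a 48-hour exposure of cells in 96-well plates to compound at five concentrations. The concentration for 50% growth inhibition is given as GI50.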 The source made the active and inactive calls. No stated cut-off is given here; in the data, active = GI50 up to about 1.1 µM and inactive = higher.
# What was measured:
# Assay in all cases: DTP human tumour cell line panel, 48 h
# HL-60 = test system: HL-60
# SF-539 = test system: SF-539
# OVCAR-8 = test system: OVCAR-8
# SK-MEL-2 = test system: SK-MEL-2
# SK-MEL-28 = test system: SK-MEL-28
# SNB-75 = test system: SNB-75
# SW-620 = test system: SW-620
# KM-20L2 = test system: KM-20L2
# NCI-H460 = test system: NCI-H460
# HOP-92 = test system: HOP-92
# OVCAR-3 = test system: OVCAR-3
# A549 = test system: A549
# KM12 = test system: KM12
# UACC-257 = test system: UACC-257
# Malme-3M = test system: Malme-3M
# SR = test system: SR
# T47D = test system: T47D
# SN12C = test system: SN12C
# HCT-15 = test system: HCT-15
# NCI-H226 = test system: NCI-H226
SMILES,GI50 (HL-60),GI50 (SF-539),GI50 (OVCAR-8),GI50 (SK-MEL-2),GI50 (SK-MEL-28),GI50 (SNB-75),GI50 (SW-620),GI50 (KM-20L2),GI50 (NCI-H460),GI50 (HOP-92),GI50 (OVCAR-3),GI50 (A549),GI50 (KM12),GI50 (UACC-257),GI50 (Malme-3M),GI50 (SR),GI50 (T47D),GI50 (SN12C),GI50 (HCT-15) [µM],GI50 (NCI-H226)
Cc1ccc2c(c1)-c1c3c(nn1-c1ccccc1)-c1ccccc1SC3O2 (stereo not given),> 100 µM (inactive),> 100 µM (inactive),> 100 µM (inactive),> 100 µM (inactive),> 100 µM (inactive),> 100 µM (inactive),> 100 µM (inactive),> 100 µM (inactive),> 100 µM (inactive),> 100 µM (inactive),> 100 µM (inactive),> 100 µM (inactive),> 100 µM (inactive),> 100 µM (inactive),> 100 µM (inactive),–,–,–,–,–
O=C1C=CC(=O)c2c(O)c(N3CCN(c4ccccn4)CC3)cc(O)c21,3.01 µM (inactive),4.85 µM (inactive),5.69 µM (inactive),5.92 µM (inactive),13.7 µM (inactive),7.41 µM (inactive),3.58 µM (inactive),–,3.24 µM (inactive),10.2 µM (inactive),4.18 µM (inactive),5.85 µM (inactive),11 µM (inactive),4.07 µM (inactive),0.553 µM (active),3.19 µM (inactive),29.4 µM (inactive),7.6 µM (inactive),3.28,45.7 µM (inactive)
COc1ccc(S(=O)(=O)N[C@H](C(=O)O)c2ccccc2)cc1,–,> 100 µM (inactive),> 100 µM (inactive),> 100 µM (inactive),> 100 µM (inactive),> 100 µM (inactive),> 100 µM (inactive),> 100 µM (inactive),> 100 µM (inactive),–,> 100 µM (inactive),> 100 µM (inactive),> 100 µM (inactive),> 100 µM (inactive),> 100 µM (inactive),–,–,> 100 µM (inactive),> 100,> 100 µM (inactive)
Cc1cc(C)nc(NS(=O)(=O)c2ccc(Nc3c4ccccc4nc4c(C(=O)N5CCN(CCO)CC5)ccc(Cl)c34)cc2)n1,34.4 µM (inactive),> 100 µM (inactive),> 100 µM (inactive),> 100 µM (inactive),> 100 µM (inactive),87.9 µM (inactive),–,60.8 µM (inactive),> 100 µM (inactive),> 100 µM (inactive),> 100 µM (inactive),> 100 µM (inactive),> 100 µM (inactive),51.5 µM (inactive),> 100 µM (inactive),–,–,94.2 µM (inactive),52.2,> 100 µM (inactive)
S=c1[nH]nc(Cc2ccccc2)c(=S)[nH]1,> 54.8 µM (inactive),> 76.4 µM (inactive),> 61.2 µM (inactive),> 43.1 µM (inactive),> 68.2 µM (inactive),23.1 µM (inactive),> 100 µM (inactive),–,> 52.5 µM (inactive),23.3 µM (inactive),> 61.7 µM (inactive),> 69.8 µM (inactive),> 79.8 µM (inactive),> 56.8 µM (inactive),> 55.6 µM (inactive),> 65 µM (inactive),21.6 µM (inactive),65.3 µM (inactive),> 62.1,> 95.3 µM (inactive)
CC(C)c1cc2c(O)c(c1)Cc1cc(C(C)C)cc(c1O)Cc1cc(C(C)C)cc(c1O)Cc1cc(C(C)C)cc(c1O)Cc1cc(C(C)C)cc(c1O)Cc1cc(C(C)C)cc(c1O)C2,> 100 µM (inactive),> 100 µM (inactive),> 100 µM (inactive),> 100 µM (inactive),> 100 µM (inactive),24.9 µM (inactive),> 100 µM (inactive),> 100 µM (inactive),> 100 µM (inactive),> 100 µM (inactive),> 100 µM (inactive),> 100 µM (inactive),> 100 µM (inactive),> 100 µM (inactive),> 100 µM (inactive),–,–,> 100 µM (inactive),> 100,–
Cc1nc(N)c(-c2ccccc2)s1,28.6 µM (inactive),70.8 µM (inactive),> 76.7 µM (inactive),32.3 µM (inactive),> 100 µM (inactive),86.7 µM (inactive),18.3 µM (inactive),> 70.8 µM (inactive),51.1 µM (inactive),> 100 µM (inactive),> 92 µM (inactive),68.9 µM (inactive),> 74.6 µM (inactive),53.7 µM (inactive),> 100 µM (inactive),–,–,81.3 µM (inactive),33.8,> 100 µM (inactive)
CCO/C=C(\C(=O)OC)S(=O)(=O)c1ccc(C)cc1,0.0596 µM (active),> 100 µM (inactive),> 100 µM (inactive),> 100 µM (inactive),> 100 µM (inactive),> 100 µM (inactive),> 100 µM (inactive),–,> 100 µM (inactive),> 100 µM (inactive),> 100 µM (inactive),> 100 µM (inactive),> 100 µM (inactive),> 100 µM (inactive),> 100 µM (inactive),> 100 µM (inactive),> 100 µM (inactive),> 100 µM (inactive),> 100,> 100 µM (inactive)
